B1: Gor1p (Saccharomyces cerevisiae S288C) (protein)
chain: MSKKPIVLKLGKDAFGDQAWGELEKIADVITIPESTTREQFLREVKDPQNKLSQVQVITRTARSVKNTGRFDEELALALPSSVVAVCHTGAGYDQIDVEPFKKRHIQVANVPDLVSNATADTHVFLLLGALRNFGIGNRRLIEGNWPEAGPACGSPFGYDPEGKTVGILGLGRIGRCILERLKPFGFENFIYHNRHQLPSEEEHGCEYVGFEEFLKRSDIVSVNVPLNHNTHHLINAETIEKMKDGVVIVNTARGAVIDEQAMTDALRSGKIRSAGLDVFEYEPKISKELLSMSQVLGLPHMGTHSVETRKKMEELVVENAKNVILTGKVLTIVPELQNEDWPNESKPLV
notes: endogenous gene overexpressed from multicopy plasmid in S. cerevisiae; crude cell extract, no tag told

Tests used:
[1] = molecular target: T1, GLYR1 (Arabidopsis thaliana, UniProt Q9LSV0); test: NADPH consumption at […] nm, Michaelis-Menten fit; type: biochemical; conditions: crude extract of overexpressing yeast; 200 μM NADPH; 50 mM sodium phosphate pH 7; 30 °C
T1 construct: full-length gene codon optimised for yeast, TPI1 promoter multicopy plasmid (p2159/pYX212), expressed in S. cerevisiae; crude cell extract, no tag told
T1 sequence (Q9LSV0 1-289): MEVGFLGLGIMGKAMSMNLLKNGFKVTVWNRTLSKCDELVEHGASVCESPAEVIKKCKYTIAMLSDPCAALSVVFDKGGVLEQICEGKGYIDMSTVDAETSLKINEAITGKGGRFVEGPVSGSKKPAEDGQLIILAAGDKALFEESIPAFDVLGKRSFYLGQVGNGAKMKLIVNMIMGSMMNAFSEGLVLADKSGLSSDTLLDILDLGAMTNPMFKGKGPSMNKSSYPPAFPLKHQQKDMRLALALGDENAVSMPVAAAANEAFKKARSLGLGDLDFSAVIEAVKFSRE

[2] = substrate: O=CC(=O)O; test: cells, lysate or membranes; type: biochemical, Saccharomyces cerevisiae; conditions: crude extract of overexpressing yeast, 200 μM NADPH, 50 mM sodium phosphate pH 7, 30 °C

Row | Molecule | Km [1] [µM] | Km [2] [µM]
1 | O=CC(=O)O [glyoxylic acid] | 38.8 | –
2 | B1 | – | 1900
